The record followed here is PubChem BioAssay AID1346 (Sanford-Burnham Center for Chemical Genomics, 2008).

The source made the active and inactive calls.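 How the source made its calls: active means compounds whose cell survival under thapsigargin stays above the level of untreated control cells; inactive means the rest, which was every compound here.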

In this assay the test system is PC12 rat cells, thapsigargin death, ATPlite luminescence, 24 h. Nature of the assay: protection from thapsigargin-triggered PC12 cell death, SAR follow-up, undifferentiated PC12, rat pheochromocytoma, ATP luminescence (AID 1346). The note with it: at 25 µM, stronger effect = higher value.
Where [1] appears, read: measured here: survival at 0.25 uM thapsigargin.
Setting [2] is: measured here: survival at 1 uM thapsigargin.

Turning to `COc1ccc(C2CC(=O)C3=C(C2)Nc2ccccc2NC3c2cccc(C(F)(F)F)c2)cc1OC` (stereo not drawn), the survival was 26% (inactive). The same compound displayed a survival under setting [1] of 25%. This compound showed a survival under setting [2] of 23%.

Take `CSc1ccc(C2Nc3ccccc3NC3=C2C(=O)CC(c2ccccc2)C3)cc1` (stereo not drawn): the survival was 31% (inactive). This compound also returned a survival under setting [1] of 23%. Under setting [2], this compound showed a survival of 19%.

As for `CCOc1cc(C2Nc3ccccc3NC3=C2C(=O)CC(c2ccc(OC)cc2)C3)cc(Cl)c1O` (stereo not drawn), the survival is 26% (inactive). For the same compound, the survival under setting [1] was determined as 38%. The same compound gave a survival under setting [2] of 35%.

As to `CC1(C)CC(=O)C2=C(C1)Nc1ccccc1NC2c1ccc(-c2ccccc2)cc1` (stereo not drawn), the survival is 37% (inactive). For the same compound, the survival under setting [1] is 33%. This compound came in with a survival under setting [2] of 29%.

As for `O=C1CC(c2ccccc2)CC2=C1C(c1c(F)cccc1Cl)Nc1ccccc1N2` (stereo not drawn), the survival is 22% (inactive). This compound also yielded a survival under setting [1] of 34%. Under setting [2], this compound displayed a survival of 24%.

In the case of `COc1ccc(C2CC(=O)C3=C(C2)Nc2ccccc2NC3c2cc(C)ccc2C)cc1` (stereo not drawn), the survival is 25% (inactive). Also, the survival under setting [1] is 27%. Also, the survival under setting [2] was 26%.

On to `CCOc1cccc(C2Nc3ccccc3NC3=C2C(=O)CC(c2ccc(OC)cc2)C3)c1` (stereo not drawn), for which the survival was 30% (inactive). Under setting [1], this compound displayed a survival of 18%. In addition, under setting [2], the survival amounted to 14%.

Turning to `COc1ccc(C2CC(=O)C3=C(C2)Nc2ccccc2NC3c2cccc(Br)c2)cc1OC` (stereo not drawn), the survival is 31% (inactive). For the same compound, the survival under setting [1] was 25%. Under setting [2], the survival came out at 21%.

With `CCCOc1ccc(C2Nc3ccccc3NC3=C2C(=O)CC(c2ccc(OC)c(OC)c2)C3)cc1` (stereo not drawn), the survival is 25% (inactive). The compound also gave a survival under setting [1] of 28%. In addition, under setting [2], the survival is 26%.

Regarding `COc1ccc(C2CC(=O)C3=C(C2)Nc2ccccc2NC3c2cccc(Oc3ccccc3)c2)cc1OC` (stereo not drawn), the survival was 49% (inactive). Moreover, under setting [1], the survival came out at 29%. Under setting [2], this compound showed a survival of 28%.

On to `COc1ccc(C2CC(=O)C3=C(C2)Nc2ccccc2NC3c2ccccc2C(F)(F)F)cc1OC` (stereo not drawn), for which the survival is 30% (inactive). The compound further came in with a survival under setting [1] of 26%. This compound also came in with a survival under setting [2] of 24%.
